Test results published in patent US10344017B2, “Pyrrolcarboxamide derivatives for the inhibition of ERK5” (CANCER RESEARCH TECHNOLOGY LIMITED, priority 2014, dated 2019).
Like-named read-outs stand apart in the source and are kept apart here.

What was measured:
[1] = molecular target: T1, ERK5 (Homo sapiens, UniProt Q13164); test: ERK5 IMAP assay (fluorescence polarisation); type: biochemical
T1 construct: made in house

[2] = tested on: HA-ERK5-ΔP493 (MEK5D-activated, MEF2D-Gal4/Gal4-Luc reporter) in HeLa cells; test: Truncated dual-luciferase reporter assay, HeLa forward transfection; type: cell-based; conditions: Homo sapiens, value with spread
Experimental: (§1) Truncated Dual-Luciferase Reporter Assay
(§2) HEK293T and HeLa Forward Transfection
HEK293T or HeLa cells were seeded in 96-well luminescence (white) plates (1.68×10^4/well in 84 μl standard culture medium) and incubated overnight at 37° C. in a humidified atmosphere of 5% CO2 in air. Plasmid DNA mastermix containing MEF2D-Gal4 (0.25 μg/μl), Gal4-Luc (1.25 μg/μl) and Renilla luciferase (0.1 μg/μl) was prepared in sterile distilled water. Constitutively-active, EGFP-tagged MEK5 (EGFP-MEK5D; 0.5 μg/μl), an EGFP-tagged construct containing no MEK5D (EGFP-C3; 0.5 μg/μl), and HA-tagged ERK5 with C-terminal truncation (HA-ERK5-ΔP493; 0.51 μg/μl) were diluted separately in sterile distilled water. Plasmid DNA and Lipofectamine 2000 (Invitrogen) were separately diluted in Opti-MEM growth media (reduced serum medium, Invitrogen), and incubated at room temperature for 5 min. Plasmid DNA (Tube A) and Lipofectamine 2000 (Tube B) were then combined and incubated for 20 min at room temperature to complex. […]
(§3) Cell Lysis and Luciferase Quantification
After 24 h incubation in the absence (control) or presence of potential inhibitor, the culture medium was aspirated and cells lysed in 20 μl 1× passive lysis buffer (Dual-Luciferase Reporter Assay System, Promega) for a minimum of 15 min with agitation. […] Cellular inhibition of ERK5 was quantified using the Dual-Luciferase Reporter Assay System (Promega). […] Luciferase reagent (50 μl/well) was added immediately before luminescence detection using a FLUOstar Omega plate reader (BMG Labtech). Stop and Glo reagent (50 μl/well) was subsequently added, and the Renilla luciferase signal (transfection efficiency control) quantified.
The ERK5-specific signalling activity was calculated by subtraction of the EGFP-C3 luciferase signal from the EGFP-MEK5D-induced luminescence. Luminescence in the absence of potential ERK5 inhibitor (DMSO control) was taken as 100% ERK5 activity. […]

[3] = tested on: ERK5 autophosphorylation in HeLa cells; test: EGF-stimulated HeLa cell assay (ERK5 autophosphorylation, Western blot); type: cell-based; conditions: Homo sapiens, average where more than one data point
Experimental: EGF-Stimulated HeLa Cell Assay
HeLa cells were serum starved overnight followed by treatment with ERK5 inhibitors for 1 hr. Cells were then stimulated with 100 ng/ml EGF for 10 or 15 min. The cells were harvested and lysed at 4° C. for 5-10 min in Laemmli buffer containing Halt protease and […] (Pierce). The lysates were boiled for 10 min at 100° C. Twenty microliters sample was run on 6% or 7.5% Tris-glycine gels and transferred to nitrocellulose. […] The IC50 was calculated from densitometry of top bands.

[4] = tested on: ERK5 (HA-ERK5 wt activated by EGFP-MEK5D, MEF2D-Gal4/Gal4-Luc reporter) in HEK293 cells; test: Dual-luciferase reporter assay (ERK5 reporter), reverse-transfected HEK293 cells; conditions: Homo sapiens, HEK293, read-out: ERK 5 Reporter Assay
Experimental: Trypsinizing of Adherent Cell Colonies
Cells were regularly passaged in order to maintain optimum colony sizes on plates. In order to do this, and to harvest cells for use in the dual-luciferase reporter assay, adherent cells were lifted from tissue culture dishes. Cell media was removed via aspiration, and the cell monolayer was washed with phosphate buffered saline (PBS) solution (10 mL), which was then aspirated.
Reverse Transfection of HEK293 Cells
Preparation of EGFP Control (C3) Working Solution (for 1×96 Well Plate)
Preparation of HEK293 Cells for Reverse Transfection
Trypsinized HEK293 cells were re-suspended in 19 mL of fresh cell media and counted using haemocytometry. Cells were then diluted with fresh cell media to achieve a final cell concentration of 2×10^5 cells/mL. 1237.5 μL and 7425 μL of this cell media was added to the C3 and 5D working solutions respectively. 100 μL of the transfected cells were then aliquoted into the appropriate wells in a 96-well opaque sided tissue culture plate, and incubated at 37° C. for 6 h.
Addition of Compounds to HEK293 Cells
4 compounds was assayed per 96-well plate. For each compound, 1 mL of growth media was added to eight 1.5 mL Eppendorf® tubes. 6 μL of DMSO was added to two tubes for C3 and blank 5D wells, and 6 μL of the relevant compound stock solution was added to the 6 remaining tubes. […] Solutions of drug in media were thoroughly mixed, and 100 μL of the relevant compound was transferred (in triplicate) to the 96-well plate containing transfected HEK293 cells using an electronic multichannel pipette with variable tip spacing. Sealed plates were incubated at 37° C. for 24 h. Final compound concentrations were as follows; 30 μM, 10 μM, 3 μM, 1 μM and 0.3 μM.
15 mL of 1× passive lysis buffer (PLB) was prepared using 5×PLB (Dual-Luciferase Reporter Assay System, Promega® E1960), diluting with H2O. Assay plates prepared were removed from the incubator and the growth media removed by aspiration.

[5] = tested on: HA-ERK5-ΔP493 (MEK5D-activated, MEF2D-Gal4/Gal4-Luc reporter) in HEK293T cells; test: Truncated dual-luciferase reporter assay, HEK293T forward transfection; type: cell-based; conditions: Homo sapiens, HEK-293T, average where more than one data point, read-out: Truncated ERK 5 Reporter Assay
Experimental: as §1, §2
Constitutively-active, EGFP-tagged MEK5 (EGFP-MEK5D; 0.5 μg/μl), an EGFP-tagged construct containing no MEK5D (EGFP-C3; 0.5 μg/μl), and HA-tagged ERK5 with C-terminal truncation (HA-ERK5-ΔP493; 0.51 μg/μl) were diluted separately in sterile distilled water. Plasmid DNA and Lipofectamine 2000 (Invitrogen) were separately diluted in Opti-MEM growth media (reduced serum medium, Invitrogen), and incubated at room temperature for 5 min. Plasmid DNA (Tube A) and Lipofectamine 2000 (Tube B) were then combined and incubated for 20 min at room temperature to complex. Cells were then transfected by addition of 16 μl of the respective transfection mixture: 3 wells with EGFP-C3-containing (control) and 21 wells with MEK5D-containing transfection mixture (final volume, 100 μl). Cells were subsequently incubated for 4 h at 37° prior to addition of potential ERK5-inhibitory compounds.
Addition of Compounds to ERK5-Transfected HEK293T or HeLa Cells
Potential ERK5-inhibitory compounds were prepared as a 2× solution by addition of 2 μl compound (or DMSO as control) to 1 ml standard culture medium. Compounds were tested in triplicate at a concentration range of 0.003 μM, 0.01 μM, 0.03 μM, 0.1 μM, 0.3 μM and 1 μM (or 0.03 μM, 0.1 μM, 0.3 μM, 1 μM, 3 μM and 10 μM for BIX02189) by addition of 100 μl 2× solution to 100 μl transfected cells (final DMSO, 0.1% v/v). Cells were incubated for 24 h at 37° C.
as §3
After 24 h incubation in the absence (control) or presence of potential inhibitor, the culture medium was aspirated and cells lysed in 20 μl 1× passive lysis buffer (Dual-Luciferase Reporter Assay System, Promega) for a minimum of 15 min with agitation. Lysates were further processed immediately or stored at −80° C. Cellular inhibition of ERK5 was quantified using the Dual-Luciferase Reporter Assay System (Promega). Luciferase assay buffer/Luciferase assay substrate and Stop and Glo assay buffer/Stop and Glo substrate were prepared according to the manufacturer's instructions. Luciferase reagent (50 μl/well) was added immediately before luminescence detection using a FLUOstar Omega plate reader (BMG Labtech). Stop and Glo reagent (50 μl/well) was subsequently added, and the Renilla luciferase signal (transfection efficiency control) quantified.
The ERK5-specific signalling activity was calculated by subtraction of the EGFP-C3 luciferase signal from the EGFP-MEK5D-induced luminescence. Luminescence in the absence of potential ERK5 inhibitor (DMSO control) was taken as 100% ERK5 activity. […] Unless stated otherwise, data are mean±standard deviation of three independent experiments.

[6] = value ± spread, second part of table, read-out: ERK5 IMAP IC50
[7] = average (e.g. geometric mean) where more than one data point, read-out: ERK5 IC50

T1 sequence (Q13164 whole entry): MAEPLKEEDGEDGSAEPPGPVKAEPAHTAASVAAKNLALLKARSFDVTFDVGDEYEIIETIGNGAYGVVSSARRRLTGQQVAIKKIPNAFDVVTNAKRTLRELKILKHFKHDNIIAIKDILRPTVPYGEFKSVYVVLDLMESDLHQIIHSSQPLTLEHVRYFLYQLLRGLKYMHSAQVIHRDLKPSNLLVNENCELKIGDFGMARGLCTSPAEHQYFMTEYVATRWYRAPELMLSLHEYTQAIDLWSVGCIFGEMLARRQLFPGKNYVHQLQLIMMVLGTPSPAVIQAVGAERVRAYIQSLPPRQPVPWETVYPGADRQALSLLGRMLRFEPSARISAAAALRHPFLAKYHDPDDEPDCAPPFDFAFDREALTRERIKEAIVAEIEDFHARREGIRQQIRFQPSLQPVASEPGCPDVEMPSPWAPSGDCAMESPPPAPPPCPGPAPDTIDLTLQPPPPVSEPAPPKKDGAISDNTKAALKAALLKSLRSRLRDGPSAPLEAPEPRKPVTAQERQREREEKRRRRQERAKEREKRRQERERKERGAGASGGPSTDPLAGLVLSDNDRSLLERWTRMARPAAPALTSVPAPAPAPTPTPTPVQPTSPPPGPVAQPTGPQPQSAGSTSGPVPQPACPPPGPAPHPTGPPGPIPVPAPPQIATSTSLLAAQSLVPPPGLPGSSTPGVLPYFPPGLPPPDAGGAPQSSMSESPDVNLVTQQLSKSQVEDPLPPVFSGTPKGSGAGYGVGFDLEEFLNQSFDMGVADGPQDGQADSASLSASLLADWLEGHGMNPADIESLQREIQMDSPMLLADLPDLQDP

IC50 [1, 6] [nM]	IC50 [2] [nM]	IC50 [1, 7] [nM]	IC50 [3] [nM]	SMILES	IC50 [4] [nM]	IC50 [5] [nM]
7550 ± 300	3200	–	–	Cn1cc(NC(=O)c2cc(C(=O)c3ccccc3F)c[nH]2)cn1 [Example 287, 4-(2-Fluorobenzoyl)-N-(1-methyl-1H-pyrazol-4-yl)-1H-pyrrole-2-carboxamide]	–	–
–	–	49.7	5100	O=C(Nc1cnc(NC2CCN(C3CC3)CC2)nc1)c1cc(C(=O)c2c(Cl)ccc(Cl)c2F)c[nH]1 [Example 25, N-(2-((1-Cyclopropylpiperidin-4-yl)amino)pyrimidin-5-yl)-4-(3,6-dichloro-2-fluorobenzoyl)-1H-pyrrole-2-carboxamide]	–	–
1560 ± 50	671	–	–	Cn1cc(NC(=O)c2cc(C(=O)c3c(F)cccc3F)c[nH]2)cn1 [Example 285, 4-(2,6-Difluorobenzoyl)-N-(1-methyl-1H-pyrazol-4-yl)-1H-pyrrole-2-carboxamide]	–	–
–	–	15.7	700	COc1ccc(Cl)c(C(=O)c2c[nH]c(C(=O)Nc3ccc(N4CCNCC4)nc3)c2)c1F [Example 69, 4-(6-Chloro-2-fluoro-3-methoxybenzoyl)-N-(6-(piperazin-1-yl)pyridin-3-yl)-1H-pyrrole-2-carboxamide]	–	–
–	–	90.8	1900	COc1ccc(Cl)c(C(=O)c2c[nH]c(C(=O)Nc3cccnc3)c2)c1F [Example 72, 4-(6-chloro-2-fluoro-3-methoxybenzoyl)-N-(pyridin-3-yl)-1H-pyrrole-2-carboxamide]	2980	–
–	–	5.1	290	O=C(Nc1ccc(CC2CCNCC2)nc1)c1cc(C(=O)c2c(Cl)ccc(Cl)c2F)c[nH]1 [Example 111, 4-(3,6-Dichloro-2-fluorobenzoyl)-N-(6-(piperidin-4-ylmethyl)pyridin-3-yl)-1H-pyrrole-2-carboxamide]	–	–
–	–	19.3	490	CCN(CC)CCNc1ncc(NC(=O)c2cc(C(=O)c3c(Cl)ccc(Cl)c3F)c[nH]2)cn1 [Example 100, 4-(3,6-Dichloro-2-fluorobenzoyl)-N-(2-((2-(diethylamino)ethyl)amino)pyrimidin-5-yl)-1H-pyrrole-2-carboxamide]	–	151
–	–	65.6	190	O=C(Nc1cccnc1)c1cc(C(=O)c2c(Cl)ccc(Cl)c2F)c[nH]1 [Example 172, 4-(3,6-Dichloro-2-fluorobenzoyl)-N-(pyridin-3-yl)-1H-pyrrole-2-carboxamide]	598	–
–	–	57.9	1700	COc1ccc(Cl)c(C(=O)c2c[nH]c(C(=O)NC3CCN(C)CC3)c2)c1F [Example 70, 4-(6-chloro-2-fluoro-3-methoxybenzoyl)-N-(1-methylpiperidin-4-yl)-1H-pyrrole-2-carboxamide]	477	–
–	–	10.8	50	O=C(Nc1ccc(OC2CCNCC2)nc1)c1cc(C(=O)c2c(Cl)ccc(Cl)c2F)c[nH]1 [Example 109, 4-(3,6-Dichloro-2-fluorobenzoyl)-N-(6-(piperidin-4-yloxy)pyridin-3-yl)-1H-pyrrole-2-carboxamide]	–	92
7070 ± 20	2480	–	–	Cc1cccc(F)c1C(=O)c1c[nH]c(C(=O)Nc2cnn(C)c2)c1 [Example 286, 4-(2-Fluoro-6-methylbenzoyl)-N-(1-methyl-1H-pyrazol-4-yl)-1H-pyrrole-2-carboxamide]	–	–
–	–	13	–	COc1ccc(Cl)c(C(=O)c2c[nH]c(C(=O)Nc3cnc(CN4CCN(C)CC4)nc3)c2)c1F [Example 245, 4-(6-Chloro-2-fluoro-3-methoxybenzoyl)-N-(2-((4-methylpiperazin-1-yl)methyl)pyrimidin-5-yl)-1H-pyrrole-2-carboxamide]	–	461
–	–	15.8	–	COc1ccc(Cl)c(C(=O)c2c[nH]c(C(=O)Nc3cnc(CN4CCNCC4)nc3)c2)c1F [Example 250, 4-(6-Chloro-2-fluoro-3-methoxybenzoyl)-N-(2-(piperazin-1-ylmethyl)pyrimidin-5-yl)-1H-pyrrole-2-carboxamide]	–	573
–	–	8.5	–	COc1ccc(Cl)c(C(=O)c2c[nH]c(C(=O)Nc3ccc(CN4CCN(C)CC4)nc3)c2)c1F [Example 246, 4-(6-Chloro-2-fluoro-3-methoxybenzoyl)-N-(6-((4-methylpiperazin-1-yl)methyl)pyridin-3-yl)-1H-pyrrole-2-carboxamide]	–	69
–	–	9	–	O=C(Nc1ccc(CN2CCCCC2)nc1)c1cc(C(=O)c2c(Cl)ccc(Cl)c2F)c[nH]1 [Example 284, 4-(3,6-Dichloro-2-fluorobenzoyl)-N-(6-(piperidin-1-ylmethyl)pyridin-3-yl)-1H-pyrrole-2-carboxamide]	–	13
–	–	31.7	140	O=C(Nc1cnn(C2CNC2)c1)c1cc(C(=O)c2c(Cl)ccc(Cl)c2F)c[nH]1 [Example 54, N-(1-(Azetidin-3-yl)-1H-pyrazol-4-yl)-4-(3,6-dichloro-2-fluorobenzoyl)-1H-pyrrole-2-carboxamide]	–	–
–	–	7.5	–	O=C(Nc1cnc(CC2CCNCC2)nc1)c1cc(C(=O)c2c(Cl)ccc(Cl)c2F)c[nH]1 [Example 253, 4-(3,6-Dichloro-2-fluorobenzoyl)-N-(2-(piperidin-4-ylmethyl)pyrimidin-5-yl)-1H-pyrrole-2-carboxamide]	–	239
–	–	26.5	–	O=C(Nc1ccc(CN2CCOCC2)nc1)c1cc(C(=O)c2c(Cl)ccc(Cl)c2F)c[nH]1 [Example 115, 4-(3,6-Dichloro-2-fluorobenzoyl)-N-(6-(morpholinomethyl)pyridin-3-yl)-1H-pyrrole-2-carboxamide]	–	31

SMILES	IC50 [1, 6] [nM]	IC50 [2] [nM]	IC50 [1, 7] [nM]	IC50 [3] [nM]	IC50 [4] [nM]	IC50 [5] [nM]
CN(c1ccc(NC(=O)c2cc(C(=O)c3c(Cl)ccc(Cl)c3F)c[nH]2)cn1)C1CCNCC1 [Example 107, 4-(3,6-Dichloro-2-fluorobenzoyl)-N-(6-(methyl(piperidin-4-yl)amino)pyridin-3-yl)-1H-pyrrole-2-carboxamide]	–	–	24.6	450	–	–
